Here are results for two compounds from article PMC5431432, “Low-basicity 5-HT7 Receptor Agonists Synthesized Using the van Leusen Multicomponent Protocol” (Scientific Reports, 2017).

“Also recorded” adds a separate entry of the source. Where two headings read alike, the source gives them in different places.

Data set [1] has as its target T1, α2C (Homo sapiens, UniProt P18825).
T1 construct: Eurofins Cerep (contract screen)
T1 sequence (P18825 1-462): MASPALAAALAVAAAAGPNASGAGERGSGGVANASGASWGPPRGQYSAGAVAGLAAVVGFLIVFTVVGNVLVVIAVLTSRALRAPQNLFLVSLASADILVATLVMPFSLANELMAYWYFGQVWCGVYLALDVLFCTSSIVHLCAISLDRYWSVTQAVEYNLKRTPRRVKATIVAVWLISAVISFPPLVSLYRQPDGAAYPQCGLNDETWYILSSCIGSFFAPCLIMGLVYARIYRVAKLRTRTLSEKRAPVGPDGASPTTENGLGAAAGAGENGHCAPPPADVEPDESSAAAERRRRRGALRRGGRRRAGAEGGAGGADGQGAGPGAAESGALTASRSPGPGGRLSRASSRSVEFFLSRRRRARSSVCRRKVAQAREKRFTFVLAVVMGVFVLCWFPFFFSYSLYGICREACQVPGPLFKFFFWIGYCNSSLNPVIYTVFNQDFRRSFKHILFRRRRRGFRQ
Description: Eurofins Cerep binding screen α2C. The note with it: 10^−6 M; read-out: % Inhibition of control binding α2C.

In data set [2] the target is T2, CYP3A4 (Homo sapiens, UniProt P08684). Kind of data set: in vitro. The note with it: CYP3A4 enzyme (Promega P450-Glo luminescent assay).
T2 sequence (P08684 whole entry): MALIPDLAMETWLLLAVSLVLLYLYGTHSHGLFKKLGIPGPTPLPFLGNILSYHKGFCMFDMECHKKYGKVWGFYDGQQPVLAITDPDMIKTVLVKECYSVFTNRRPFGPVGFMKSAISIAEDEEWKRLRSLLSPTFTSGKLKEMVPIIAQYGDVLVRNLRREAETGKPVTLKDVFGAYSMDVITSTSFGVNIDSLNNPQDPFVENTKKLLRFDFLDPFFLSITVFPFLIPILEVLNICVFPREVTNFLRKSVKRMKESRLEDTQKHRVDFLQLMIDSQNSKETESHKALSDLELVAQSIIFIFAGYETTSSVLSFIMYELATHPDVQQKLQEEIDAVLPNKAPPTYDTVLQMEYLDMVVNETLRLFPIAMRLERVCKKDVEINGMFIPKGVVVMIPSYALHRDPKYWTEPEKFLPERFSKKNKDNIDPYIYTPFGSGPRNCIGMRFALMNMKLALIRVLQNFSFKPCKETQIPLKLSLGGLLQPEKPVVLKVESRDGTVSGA
Description: (§1) Drug-drug interactions (DDI) – the influence on CYP3A4 activity
(§2) The luminescent CYP3A4 P450-Glo™ assay and protocol were provided by Promega (Madison, WI, USA)
(§3) was obtained from Sigma-Aldrich (St. Louis, USA). The enzymatic reactions were performed in white
(§4) polystyrene, flat-bottom Nunc™ MicroWell™ 96-Well Microplates (Thermo Scientific, Waltham, MA
(§5) USA). The luminescence signal was measured with a microplate reader in luminescence mode (EnSpire,
PerkinElmer, Waltham, MA USA).
The final concentrations of 1e and
to calculate IC50 values.
Data set [3] has as its system HEK-293 cells. Description: MTS cytotoxicity assay HEK-293. The class given is cell-based, human. The note with it: 72 h incubation, 0.1–100 μM.
Description: (§6) The cell line was cultured in Dulbecco’s Modified Eagle’s Medium DMEM (Gibco) with 10% fetal bovine
(§7) The cells were cultured in Modified Eagle’s Medium
(§8) MEM with 100 mg/ml streptomycin and 100 U/ml penicillin, 1%, Non Essential Amino Acids (NEAA) and
(§9) solutions of examined compounds in DMSO were diluted into fresh growth medium and added into the
(§10) microplates at the final concentrations 0.1 μM – 100 μM. The well-known cytostatic compound
(§11) doxorubicin (DX) 1 μM was used as a positive control for both cell lines. Additionally, carbonyl cyanide
(§12) 3-chlorophenylhydrazone (CCCP) 10 μM was used as positive control mitochondrial toxin for hepatocytes.
(§13) Proliferation Assay, Promega) was added to the each well and the cells were incubated under the same
(§14) conditions for 4 h. The absorbance of the samples was measured using a microplate reader (PerkinElmer) at
Data set [4] relates to α1. Description: Eurofins Cerep binding screen α1. The note with it: 10^−6 M.
Data set [5] deals with T3, CB1 (Homo sapiens, UniProt P21554).
T3 construct: Eurofins Cerep (contract screen)
T3 sequence (P21554 whole entry, species assumed): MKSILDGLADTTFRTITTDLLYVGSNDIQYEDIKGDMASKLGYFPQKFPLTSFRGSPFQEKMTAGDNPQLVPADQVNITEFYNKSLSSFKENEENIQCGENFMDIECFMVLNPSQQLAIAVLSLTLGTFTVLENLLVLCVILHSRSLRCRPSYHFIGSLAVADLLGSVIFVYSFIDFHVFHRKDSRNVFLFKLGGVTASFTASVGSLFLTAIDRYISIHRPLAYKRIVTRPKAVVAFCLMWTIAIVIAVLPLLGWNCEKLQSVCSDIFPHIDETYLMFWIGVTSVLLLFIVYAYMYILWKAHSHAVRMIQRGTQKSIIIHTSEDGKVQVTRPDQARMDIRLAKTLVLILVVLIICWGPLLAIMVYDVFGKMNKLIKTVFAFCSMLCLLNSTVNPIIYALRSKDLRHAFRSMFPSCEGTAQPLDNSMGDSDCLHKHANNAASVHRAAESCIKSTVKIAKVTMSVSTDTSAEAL
Description: Eurofins Cerep binding screen CB1. The note with it: 10^−6 M; read-out: % Inhibition of control binding CB1.

A short description of data set [6]: Water solubility (statement). It is filed as physicochemical.
In data set [7] the target is T4, D3 (Homo sapiens, UniProt P35462).
T4 construct: Eurofins Cerep (contract screen)
T4 sequence (P35462 whole entry): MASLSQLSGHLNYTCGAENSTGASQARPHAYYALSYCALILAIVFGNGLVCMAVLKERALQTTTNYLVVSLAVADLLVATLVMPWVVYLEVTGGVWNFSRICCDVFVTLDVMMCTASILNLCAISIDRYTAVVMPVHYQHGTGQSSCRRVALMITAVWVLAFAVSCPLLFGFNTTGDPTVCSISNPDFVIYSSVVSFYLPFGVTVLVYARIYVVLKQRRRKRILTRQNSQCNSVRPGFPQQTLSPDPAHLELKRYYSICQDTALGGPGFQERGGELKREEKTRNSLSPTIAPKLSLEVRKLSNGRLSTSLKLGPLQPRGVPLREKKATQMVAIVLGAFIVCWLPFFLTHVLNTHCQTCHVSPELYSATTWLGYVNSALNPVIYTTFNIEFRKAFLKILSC
Kind of data set: Eurofins Cerep binding screen D3. The note with it: 10^−6 M; read-out: % Inhibition of control binding D3.

The target in data set [8] is T5, 5-HT2B (Homo sapiens, UniProt P41595).
T5 construct: Eurofins Cerep (contract screen)
T5 sequence (P41595 whole entry, species assumed): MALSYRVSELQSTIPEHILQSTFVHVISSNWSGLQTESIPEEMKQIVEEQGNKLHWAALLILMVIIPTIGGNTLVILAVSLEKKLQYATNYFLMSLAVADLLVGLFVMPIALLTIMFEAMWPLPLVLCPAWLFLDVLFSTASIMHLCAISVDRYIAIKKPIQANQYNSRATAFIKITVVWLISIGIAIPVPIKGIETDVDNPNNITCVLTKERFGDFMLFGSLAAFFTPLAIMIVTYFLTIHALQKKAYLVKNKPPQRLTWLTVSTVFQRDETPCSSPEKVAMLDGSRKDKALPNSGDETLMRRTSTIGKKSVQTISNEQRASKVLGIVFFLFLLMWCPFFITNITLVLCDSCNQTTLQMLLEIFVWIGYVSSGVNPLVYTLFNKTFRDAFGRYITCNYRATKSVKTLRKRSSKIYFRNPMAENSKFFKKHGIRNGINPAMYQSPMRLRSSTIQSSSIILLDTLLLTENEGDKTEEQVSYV
Kind of data set: Eurofins Cerep binding screen 5-HT2B. The note with it: read-out: % Inhibition of control binding 5-HT2B; for inhibition at 1 µM: 10^−6 M (1 µM); for inhibition at 0.01 µM: 10^−8 M (10 nM).

For data set [9], the target named is human serotonin 5-HT7bR (Homo sapiens, UniProt P34969). Kind of data set: Radioligand binding, [3H]-5-CT displacement. The note with it: for Ki: read-out: K i (5-HT7R).
Chain of human serotonin 5-HT7bR (P34969 1-432 limits assumed): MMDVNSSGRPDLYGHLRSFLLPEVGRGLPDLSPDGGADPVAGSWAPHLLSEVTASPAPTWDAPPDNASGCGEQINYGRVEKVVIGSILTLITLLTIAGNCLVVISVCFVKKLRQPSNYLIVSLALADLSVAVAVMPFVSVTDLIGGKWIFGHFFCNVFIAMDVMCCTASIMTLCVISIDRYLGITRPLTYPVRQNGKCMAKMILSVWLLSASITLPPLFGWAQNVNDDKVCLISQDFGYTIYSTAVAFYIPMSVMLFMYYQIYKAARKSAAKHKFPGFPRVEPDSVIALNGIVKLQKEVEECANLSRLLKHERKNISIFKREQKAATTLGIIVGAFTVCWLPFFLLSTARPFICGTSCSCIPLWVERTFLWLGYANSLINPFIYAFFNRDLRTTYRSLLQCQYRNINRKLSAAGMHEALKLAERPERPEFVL
Data set [10] has as its target T6, H1 (Homo sapiens, UniProt P35367).
T6 construct: Eurofins Cerep (contract screen)
Kind of data set: Eurofins Cerep binding screen H1. The note with it: 10^−6 M; read-out: % Inhibition of control binding H1.

In data set [11] the target is T7, 5-HT1B (Homo sapiens, UniProt P28222).
T7 construct: Eurofins Cerep (contract screen)
T7 sequence (P28222 whole entry, species assumed): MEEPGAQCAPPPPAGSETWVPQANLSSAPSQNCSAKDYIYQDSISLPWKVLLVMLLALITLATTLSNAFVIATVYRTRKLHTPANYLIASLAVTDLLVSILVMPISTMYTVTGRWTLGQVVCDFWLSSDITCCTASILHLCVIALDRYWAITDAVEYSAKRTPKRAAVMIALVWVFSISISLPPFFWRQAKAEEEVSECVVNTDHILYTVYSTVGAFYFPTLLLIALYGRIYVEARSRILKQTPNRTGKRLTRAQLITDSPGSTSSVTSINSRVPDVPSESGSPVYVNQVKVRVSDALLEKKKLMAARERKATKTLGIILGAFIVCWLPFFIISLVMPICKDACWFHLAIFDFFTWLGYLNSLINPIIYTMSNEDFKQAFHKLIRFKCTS
Kind of data set: Eurofins Cerep binding screen 5-HT1B. The note with it: 10^−6 M; read-out: % Inhibition of control binding 5-HT1B.

Data set [12] has as its target T8, 5-HT5A (Homo sapiens, UniProt P47898).
T8 construct: Eurofins Cerep (contract screen)
Kind of data set: Eurofins Cerep binding screen 5-HT5A. The note with it: 10^−6 M; read-out: % Inhibition of control binding 5-HT5A.

Data set [13] addresses T2, CYP3A4. Description: biochemical.
Description: as §1, §2, §3, §4, §5
PerkinElmer, Waltham, MA USA).
The final concentrations of 1e and
to calculate IC50 values.
The nature of data set [14]: Metabolic stability in human liver microsomes. The class given is in vitro ADME. The note with it: for CLint scaled at 50 μM: human, read-out: Clint, metabolic clearance.
Description: The in vitro evaluation of metabolic stability was performed by using human liver microsomes
(HLMs) (Sigma-Aldrich, St. Louis, MO, USA). The reaction mixtures consisted of 50 μM of tested
compounds with microsomes (1 mg/ml) in 10 mM tris-HCl buffer.
preincubation, the 50 µL of NADPH Regeneration System (Promega, Madison, WI, USA) was
added to initiate the reaction. The reactions were terminated by the addition of the cold methanol
The mixtures were centrifuged
The course of reaction was followed by using the
analyte/IS peak height ratio values.
Mass spectra were recorded on a UPLC-MS/MS system consisted of a Waters ACQUITY® UPLC® (Waters Corporation, Milford, MA, USA) coupled to a Waters TQD mass spectrometer
(electrospray ionization mode ESI-tandem quadrupole). Chromatographic separations were carried
particle size, equipped with Acquity UPLC BEH C18 VanGuard pre-column; 2.1 × 5 mm, and
The column was maintained at 40 °C, and eluted under gradient conditions
acid (0.1%, v/v); eluent B: acetonitrile/formic acid (0.1%, v/v). Chromatograms were made using
sampling rate 20 points/s. MS detection settings of Waters TQD mass spectrometer were as
600 L h−1, cone gas flow 100 L h−1, capillary potential 3.00 kV, cone potential 40 V. Nitrogen was
used for both nebulizing and drying gas. The data were obtained in a scan mode ranging from 50 to
2000 m/z in time 1.0 s intervals. Data acquisition software was MassLynx V 4.1 (Waters). The
The test system of data set [15] is HepG2 cells. Description: MTS cytotoxicity assay HepG2. The class given is cell-based. The note with it: 72 h incubation, 0.1–100 μM.
Description: as §6, §7, §8, §9, §10, §11, §12, §13, §14
The target in data set [16] is human 5-HT7 receptor (Homo sapiens, UniProt P34969). Description: Functional assay, cAMP production (TR-FRET) in HEK293 cells overexpressing 5-HT7R. The note with it: for EC50: hydrochloride salts. It is filed as cell-based.
Chain of human 5-HT7 receptor (P34969 1-432 limits assumed): as the sequence (P34969 1-432 limits assumed) above
Data set [17] relates to MK-801 induced impairment in novel object recognition. Description: Novel object recognition test, reversal of MK-801 induced impairment. Further details: species or system Albino Swiss mice. The note with it: mouse, in vivo.
Description: The experiment was conducted on Albino Swiss mice (see Supporting Information).
trained and tested in a black, plastic, open field (50 × 30 cm, 35 cm high) with the floor divided into 20-cm
The open field was in a dark room illuminated only by a 25 W bulb. On the first day
(adaptation) the animals were allowed to explore the open field for 10 min. On the next day (training, T1) the
animals were administered the tested drugs, placed in the apparatus and allowed to explore two identical
objects (cylindrical objects with walls painted white, 7 cm in diameter, 11 cm high) for the time required to
complete 15 s of exploration of either object. For the retention trial (T2) conducted one h later, one of the
objects presented in T1 was replaced with a novel object (a prism-shaped object with walls painted black,
5 cm wide, 14 cm high). The duration of exploration of each object (i.e., sitting in close proximity to the
objects or sniffing or touching them) during 5 min time was video recorded and measured separately by a
trained observer. All drugs were administered before the training (T1) session.
Data set [18] can be described thus: Pharmacokinetics after i.p. administration in mice. The class given is in vivo, CD-1 mice.
Description: A group of 32 adult male mice (CD-1, 18-21 g) were used in the experiment.
During the habituation period the groups of 4 mice were kept in a plastic cage (252 mm x 167 cm x
140 cm) at a controlled room temperature (22±2°C), humidity (55±10%), full spectrum cold white light
access to standard laboratory pellet and tap water.
administered by an intraperitoneal (i.p.) administration at a dose of 5 mg/kg. Blood samples were collected
administration. The blood and brain samples were collected under general anesthesia induced by i.p.
injections of 50 mg/kg ketamine plus 8 mg/kg xylazine. The blood samples were taken into heparinized
tubes, immediately centrifuged at 3500 rpm for 10 min and plasma was collected. The brain and plasma
samples were immediately frozen at - 80°C for LC/MS/MS analysis.
Pharmacokinetic parameters were calculated by a non-compartmental approach from the average
elimination rate constant (λz) was calculated by linear regression of time versus log concentration. Next, the
area under the mean serum and tissue concentration versus time curve (AUC0→t) was estimated using the
log-linear trapezoidal rule (Eq. 1), where Cn is the concentration of last sampling of each compound.
Area under the first-moment curve (AUMC0→t) was estimated by calculation of the total area under the
first-moment curve using the equation 2, where tn is the time of last sampling.
Mean residence time (MRT) was calculated as:
Total clearance (ClT) was calculated as:
Volume of distribution (Vd) was calculated as:
The quantification of studied compound in plasma and brain samples was done using UPLC Agilent 1100
system (Agilent Technologies, Waldbronn, Germany) coupled to the triple quadrupole mass spectrometer
API 2000 (ABSciex, Framingham, Massachusetts, USA) equipped with electrospray ion source. After
Milford, Massachusetts, USA) analytical column. The mobile phase consisted of ACN with 0.1% formic
acid (A) and water with 0.1% formic acid (B) were delivered in gradient elution started with 90% of eluent
B, increasing during 2 min to 90% of eluent A, maintained to 3 min, and then returned during 5 min to 90% of
eluent B, and maintained 90% of eluent B during 5 min at a flow rate of 300 µL/min. The total time of
analysis was 10 min. Electrospray ionization process was performed in positive ionization and the data
(nebivolol). The ion spray source settings were as follows: spray voltage: 5.5 kV, heater temperature:
400°C, curtain gas: 20 psi, source gas 1: 40 psi, source gas 2: 20 psi.

T8 sequence (P47898 whole entry, species assumed): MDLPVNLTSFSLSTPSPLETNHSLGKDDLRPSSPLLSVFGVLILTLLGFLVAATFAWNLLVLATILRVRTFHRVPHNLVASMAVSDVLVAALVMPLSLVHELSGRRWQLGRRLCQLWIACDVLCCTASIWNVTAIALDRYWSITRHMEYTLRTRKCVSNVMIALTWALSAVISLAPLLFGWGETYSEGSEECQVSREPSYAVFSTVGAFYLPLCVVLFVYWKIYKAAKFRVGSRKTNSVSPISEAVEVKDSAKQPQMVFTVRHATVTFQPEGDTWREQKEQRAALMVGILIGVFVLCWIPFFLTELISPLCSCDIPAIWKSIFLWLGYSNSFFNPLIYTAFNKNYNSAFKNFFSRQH
T6 sequence (P35367 whole entry): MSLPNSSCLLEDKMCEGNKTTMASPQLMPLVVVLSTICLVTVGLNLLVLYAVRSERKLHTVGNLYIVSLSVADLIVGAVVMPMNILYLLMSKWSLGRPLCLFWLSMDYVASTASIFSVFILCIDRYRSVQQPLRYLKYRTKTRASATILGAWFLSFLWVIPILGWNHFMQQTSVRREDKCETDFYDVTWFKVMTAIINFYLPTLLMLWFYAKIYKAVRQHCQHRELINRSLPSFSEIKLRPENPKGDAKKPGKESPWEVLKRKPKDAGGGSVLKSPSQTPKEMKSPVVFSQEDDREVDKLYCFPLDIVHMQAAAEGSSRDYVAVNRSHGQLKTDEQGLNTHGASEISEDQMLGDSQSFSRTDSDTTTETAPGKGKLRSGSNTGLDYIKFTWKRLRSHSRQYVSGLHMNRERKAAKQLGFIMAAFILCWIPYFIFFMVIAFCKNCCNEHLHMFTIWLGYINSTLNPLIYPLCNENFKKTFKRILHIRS

On to `CCn1cncc1-c1c[nH]c2ccc(OC)cc12.Cl` [1e, 3-(1-Ethyl-1H-imidazol-5-yl)-5-methoxy-1H-indole hydrochloride], for which the inhibition at 1 µM in [1] is 9%; in data set [5], 8%; in data set [7] it was 8%; in data set [8], 93%; in [10], 6%; in [11], 24%. For the same compound, the inhibition at 1 µM in data set [12] was determined as 9%. In addition, the IC50 is 240 nM in [2] and 270 nM in data set [13]. In addition, the “cell viability in words, HEK-293” value in data set [3] is “the cells remained viable in all tested concentrations”. Also, the “% Inhibition of control binding α1” value in data set [4] is 5%. In data set [6], the “water solubility in words” value was “water soluble”. In addition, the inhibition at 0.01 µM in data set [8] was found to be 6%. For the same compound, the Ki in [9] worked out at 30 nM. Besides, the main metabolic pathway entry in data set [14] (MS of metabolite M1) is reported as “hydroxylation”. The CLint scaled at 50 μM in data set [14] was 3.69 mL/min/kg. The “cell viability in words, HepG2” value in data set [15] is given as “the cells remained viable in all tested concentrations”. Also, in [16], the “function at the human 5-HT7 receptor” value was “full agonists”. The EC50 in data set [16] amounted to 60 nM.

As for `CCn1cncc1-c1c[nH]c2ccc(I)cc12` [1o, 3-(1-ethyl-1H-imidazol-5-yl)-5-iodo-1H-indole], the “cell viability in words, HEK-293” value in [3] is reported as “toxic for the cells only in the highest concentration (100 μM)”. The “water solubility in words” value in data set [6] is recorded as “water soluble”. In [8], the inhibition at 1 µM came to 87% and the inhibition at 0.01 µM is 7%. In addition, in [9], the “selectivity over 5-HT1AR” value worked out at 176 fold and the Ki came out at 6 nM. For the same compound, in data set [11], the inhibition at 1 µM was found to be 40%. In [12], the inhibition at 1 µM amounted to 7%. Also, the IC50 in [13] was 170 nM. Besides, in data set [17], the “reversal of MK-801 induced disruption in novel object recognition” value is recorded as “active; also recorded: dose-dependently reversed MK-801-induced disruption in novel object recognition; also recorded: reversed MK-801 induced novel object recognition impairment”. The CLint scaled at 50 μM in [14] is 6.3 mL/min/kg. Also, the “blood/plasma ratio compared to LP-44” value in data set [18] (1o 5 mg/kg i.p. vs LP-44 10 mg/kg i.p.) is listed as “three-fold higher”. Moreover, the “brain/plasma ratio compared to LP-211” value in data set [18] (1o 5 mg/kg i.p. vs LP-211 10 mg/kg i.p.) came to 9 times. In addition, in data set [18] (i.p. 5 mg/kg), the Cmax brain is 2723 ng/g, the “Cmax brain (molar)” value was “approx. 8 μM”, the maximum plasma concentration stood at 749 ng/mL and the “maximum plasma concentration (molar)” value is ~ 2.2 μM. The “time in which half of the compound was eliminated from the body” value in data set [18] (i.p. 5 mg/kg) is reported as at most 90 min. Besides, the t0.5 brain in data set [18] (i.p. 5 mg/kg, brain) is recorded as 130 min. Also, in [18] (i.p. 5 mg/kg, plasma and brain), the “last sampling time at which measurable” value came to 6 h. Also, the MRT in data set [18] (male, CD-1, mouse, brain, ip, i.p. 5 mg/kg, read-out: MRT brain (converted)) is 60 min. Moreover, the Kp in [18] (male, CD-1, mouse, brain/plasma, ip, i.p. 5 mg/kg, read-out: brain to plasma ratio) turned out to be 6.34. Besides, the Tmax in data set [18] (male, CD-1, mouse, ip, i.p. 5 mg/kg, plasma) is 15 min. In data set [18] (male, CD-1, mouse, plasma, ip, i.p. 5 mg/kg), the Vd/F was 46.6 L/kg. For the same compound, the MRT in [18] (male, CD-1, mouse, plasma, ip, i.p. 5 mg/kg, read-out: MRT plasma (converted)) was 27 min. Besides, the “cell viability in words, HepG2” value in [15] is recorded as “toxic for the cells only in the highest concentration (100 μM)”. Besides, in [16], the “function at the human 5-HT7 receptor” value is “full agonists” and the EC50 was determined as 19 nM.
